One data set has as its system CYP3A4. The settings on record: cited from earlier work.
Data set [1] has as its system CYP3A. Particulars: cited from earlier work.
Data set [2] deals with CYP3A. The settings on record: by inhibiting CYP3A activity; cited from earlier work.
Data set [3] can be described thus: Midazolam pharmacokinetics in rats after 7-day MFE or water pre-treatment. The settings on record: rat.
[4] abbreviates: Sprague Dawley, plasma, po, 15 mg/kg.

Turning to `O=C(O[C@@H]1Cc2c(O)cc(O)cc2O[C@@H]1c1cc(O)c(O)c(O)c1)c1cc(O)c(O)c(O)c1` [EGCG, epigallocatechin gallate], the “Inhibition of CYP3A4 activity” value with CYP3A4 is on record as “irreversibly inhibits”. Moreover, the “Inhibition of CYP3A activity in human liver microsomes” value in the data set on CYP3A [1] is recorded as “moderately inhibits”. Further, the “Effect on pharmacokinetics of nicardipine in rats” value with CYP3A [2] was “alters the pharmacokinetics of nicardipine”.

The term Tmax denotes the time from dosing to the highest level. As usually defined, the Cmax is the highest concentration seen after dosing. `Cc1ncc2n1-c1ccc(Cl)cc1C(c1ccccc1F)=NC2` [Midazolam]: the Tmax in data set [3] (Sprague Dawley, plasma, po) was 15 min; in data set [3] (setting [4]), 30 min. The Cmax is 708 ± 91 ng/mL in data set [3] (setting [4]) and 919 ± 70 ng/mL in data set [3] (midazolam 15 mg/kg oral, control (water pre-treatment 7 days)). Further, the “AUC0−∞ higher in MFE pre-treatment group compared to control group” value in data set [3] (midazolam 15 mg/kg oral, no significant difference) was 12%.

The values above are taken from article PMC12117050 (Scientific Reports, 2025).
